Experimental data taken from US6528494B2 (priority 1996, dated 2003).
Counter-ions that a name gives are not always drawn.

Experiments:
Format in all cases: cell-based
adenosine 2a receptor = adenosine 2a receptor (Homo sapiens, UniProt P29274); assay: Agonist activity against adenosine 2a receptor (CHO cells, cAMP/SPAP reporter); conditions: CHO cells transfected with human receptor; basal cAMP via SPAP; mean of all the versions tested
Procedure: (§1) (1) Agonist activity against adenosine 2a, adenosine 1 and adenosine 3 receptor subtypes.
(§2) The effect of test compounds was determined by their effects on basal levels of cAMP (A2a) or on forskolin-enhanced cAMP (A1 and A3) as reflected by changes in levels of SPAP.

adenosine 1 receptor = target: T1, adenosine 1 receptor (Homo sapiens, UniProt P30542); assay: Agonist activity against adenosine 1 receptor (CHO cells, forskolin-enhanced cAMP/SPAP reporter); conditions: CHO cells transfected with human receptor; forskolin-enhanced cAMP via SPAP; mean of all the versions tested
T1 sequence (P30542 1-326): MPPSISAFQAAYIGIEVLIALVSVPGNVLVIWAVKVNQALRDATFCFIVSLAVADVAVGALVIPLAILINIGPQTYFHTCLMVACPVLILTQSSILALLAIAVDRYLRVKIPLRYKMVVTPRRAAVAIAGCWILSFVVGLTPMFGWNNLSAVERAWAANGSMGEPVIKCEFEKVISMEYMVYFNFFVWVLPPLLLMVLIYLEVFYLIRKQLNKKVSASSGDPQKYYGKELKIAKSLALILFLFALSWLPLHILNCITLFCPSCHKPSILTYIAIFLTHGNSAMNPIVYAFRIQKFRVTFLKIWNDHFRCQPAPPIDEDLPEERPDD
Procedure: as §1, §2

adenosine 3 receptor = target: T2, adenosine 3 receptor (Homo sapiens, UniProt P0DMS8); assay: Agonist activity against adenosine 3 receptor (CHO cells, forskolin-enhanced cAMP/SPAP reporter); conditions: CHO cells transfected with human receptor; forskolin-enhanced cAMP via SPAP; mean of all the versions tested
T2 sequence (P0DMS8 1-318): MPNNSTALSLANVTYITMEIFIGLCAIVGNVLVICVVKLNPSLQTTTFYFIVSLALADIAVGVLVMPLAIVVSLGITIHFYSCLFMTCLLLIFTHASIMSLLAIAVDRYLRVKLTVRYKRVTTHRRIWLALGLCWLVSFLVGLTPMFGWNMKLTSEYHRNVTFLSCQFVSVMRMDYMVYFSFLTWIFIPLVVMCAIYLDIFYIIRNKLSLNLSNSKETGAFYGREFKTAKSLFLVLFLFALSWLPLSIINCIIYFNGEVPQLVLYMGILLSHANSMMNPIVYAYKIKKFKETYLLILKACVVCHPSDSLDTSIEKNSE
Procedure: as §1, §2

Sequence of adenosine 2a receptor (P29274 whole entry): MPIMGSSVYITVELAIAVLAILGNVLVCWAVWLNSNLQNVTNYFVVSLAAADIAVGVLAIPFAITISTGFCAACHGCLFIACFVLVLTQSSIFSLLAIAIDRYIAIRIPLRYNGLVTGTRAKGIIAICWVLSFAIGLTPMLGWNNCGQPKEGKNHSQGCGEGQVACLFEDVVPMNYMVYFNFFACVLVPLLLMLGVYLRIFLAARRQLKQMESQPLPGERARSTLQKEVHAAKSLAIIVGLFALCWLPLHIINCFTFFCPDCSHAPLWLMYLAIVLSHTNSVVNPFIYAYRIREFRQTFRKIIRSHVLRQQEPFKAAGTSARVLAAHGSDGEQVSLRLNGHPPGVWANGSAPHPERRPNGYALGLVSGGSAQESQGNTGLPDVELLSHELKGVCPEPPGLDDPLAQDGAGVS

Row | A2a EC50 as a ratio of that of NECA (adenosine 2a receptor) | A1 EC50 as a ratio of that of NECA (adenosine 1 receptor) | A3 EC50 as a ratio of that of NECA (adenosine 3 receptor) | Molecule
1 | 1.12 | 100.30 | >201 | Cn1nnc(C2OC(n3cnc4c(NCc5cccc(I)c5)nc(NCCN5CCCCC5)nc43)C(O)C2O)n1 [Example 106, (2R,3R,4S,5R)-2-[6-(3-lodo-benzylamino)-2-(2-piperidin-1-yl-ethylamino)-purin-9-yl]-5-(2-methyl-2H-tetrazol-5-yl)-tetrahydro-furan-3,4-diol bis(Formate)]
2 | 4.00 | 31.00 | >181 | (2R,3S,4R,5R)-2-(2-Ethyl-2H-tetrazol-5-yl)-5-[6-(1S-hydroxymethyl-2-ethylamino)-2-(2-morpholin-4-yl-ethylamino)-purin-9-yl]-tetrahydro-furan-3,4-diol Formate [Example 78]
3 | 0.53 | 89.3 | >549 | CCn1nnc([C@H]2O[C@@H](n3cnc4c(NCC(c5ccccc5)c5ccccc5)nc(N[C@H]5CC[C@H](N)CC5)nc43)[C@H](O)[C@@H]2O)n1 (relative stereo) [Example 1, rel-(2R,3R,4S,5R)-2-[2-(trans-4-Amino-cyclohexylamino)-6-(2,2-diphenylethylamino)-purin-9-yl]-5-(2-ethyl-2H-tetrazol-5-yl)-tetrahydro-furan-3,4-diol]
4 | 5.71 | 292.70 | >127 | CCn1nnc(C2OC(n3cnc4c(NCc5cccc(I)c5)nc(NC5CCC(N)CC5)nc43)C(O)C2O)n1.O=CO.O=CO [Example 100, (2R,3R,4S,5R)-2-[2-(trans-4-Amino-cyclohexylamino)-6-(3-iodo-benzylamino)-purin-9-yl]-5-(2-ethyl-2H-tetrazol-5-yl)-tetrahydro-furan-3,4-diol Diformate]
5 | 0.69 | 247.6 | >346 | CCn1nnc(C2OC(n3cnc4c(N)nc(NCCc5ccc(S(N)(=O)=O)cc5)nc43)C(O)C2O)n1 (stereo not drawn) [Example 17, 4-(2-{6-Amino-9-[5R-(2-ethyl-2H-tetrazol-5-yl)-3R,4S-Dihydroxy-tetrahydro-furan-2R-yl]-9H-purin-2-ylamino}-ethyl)-benzenesulfonamide Formate]
6 | 6.36 | 321.00 | >195 | CCn1nnc(C2OC(n3cnc4c(NCCc5ccccc5)nc(NCCN5CCCCC5)nc43)C(O)C2O)n1.O=CO.O=CO [Example 102, (2R,3S,4R,5R)-2-(2-Ethyl-2H-tetrazol-5-yl)-5-[6-phenethylamino-2-(2-piperidin-1-yl-ethylamino)-purin-9-yl]-tetrahydro-furan-3,4-diol Diformate]
7 | 7.24 | 30.55 | >405 | CCC(CC)Nc1nc(NCCN2CCOCC2)nc2c1ncn2C1OC(c2nnn(C(C)C)n2)C(O)C1O.O=CO.O=CO [Example 70, (2R,3R,4S,5R)-2-[6-(1-Ethyl-propylamino)-2-(2-morpholin-4-yl-ethylamino)-purin-9-yl]-5-(2-isopropyl-2H-tetrazol-5-yl)-tetrahydro-furan-3,4-diol Diformate]
8 | 5.86 | 55.60 | >326 | CC(C)n1nnc([C@H]2O[C@@H](n3cnc4c(N[C@H](CO)Cc5ccccc5)nc(NCCc5ccccn5)nc43)[C@H](O)[C@@H]2O)n1.O=CO [Example 63, (2R,3R,4S,5R)-2-[6-(1S-Hydroxymethyl-2-phenyl-ethylamino)-2-(2-pyridin-2-yl-ethylamino)-purin-9-yl]-5-(2-isopropyl-2H-tetrazol-5-yl)-tetrahydro-furan-3,4-diol Formate]
9 | 0.84 | 230.8 | >116 | CCn1nnc([C@H]2O[C@@H](n3cnc4c(NCc5cccc(I)c5)nc(NCCc5cn(C)cn5)nc43)[C@H](O)[C@@H]2O)n1 [Example 3, (2R,3S,4R,5R)-2-(2-Ethyl-2H-tetrazol-5-yl)-5-{6-(3-iodo-benzylamino)-2-[2-(1-methyl-1H-imidazol-4-yl)-ethylamino]-purin-9-yl}-tetrahydro-furan-3,4-diol]
10 | 0.79 | 123 | >201 | Cn1nnc(C2OC(n3cnc4c(NC(CO)Cc5ccccc5)nc(NC5CCC(N)CC5)nc43)C(O)C2O)n1 [Example 35, (2R,3R,4S,5R)-2-[2-(trans-4-Amino-cyclohexylamino)-6-(1S-hydroxymethyl-2-phenyl-ethylamino)-purin-9-yl]-5-(2-methyl-2H-tetrazol-5-yl)-tetrahydro-furan-3,4-diol bis(Formate)]
11 | 2.46 | 61.50 | >158 | CCC(CC)Nc1nc(NC2CCN(Cc3ccccc3)C2)nc2c1ncn2C1OC(c2nnn(CC)n2)C(O)C1O.O=CO.O=CO [Example 65, (2R,3R,4S,5R)-2-[2-(1-Benzyl-pyrrolidin-3-ylamino)-6-(1-ethyl-propylamino)-purin-9-yl]-5-(2-ethyl-2H-tetrazol-5-yl)-tetrahydro-furan-3,4-diol bis(Formate)]
12 | 4.77 | 89.11 | >156 | CC(C)n1nnc(C2OC(n3cnc4c(NC5CCCC5)nc(NCCN5CCCC5)nc43)C(O)C2O)n1.O=CO.O=CO [Example 81, (2R,3R,4S,5R)-2-[6-Cyclopentylamino-2-(2-pyrrolidin-1-yl-ethylamino)-purin-9-yl]-5-(2-isopropyl-2H-tetrazol-5-yl)-tetrahydro-furan-3,4-diol Diformate]
13 | 3.50 | 56.20 | >331 | CCC(CC)Nc1nc(NCCN2CCCCC2)nc2c1ncn2C1OC(c2nnn(C(C)C)n2)C(O)C1O.O=CO.O=CO [Example 68, (2R,3R,4S,5R)-2-[6-(1-Ethyl-propylamino)-2-(2-piperidin-1-yl-ethylamino)-purin-9-yl]-5-(2-isopropyl-2H-tetrazol-5-yl)-tetrahydro-furan-3,4-diol bis(Formate)]
14 | 6.60 | 515.30 | >148 | CCn1nnc(C2OC(n3cnc4c(NCCN5CCCCC5)nc(NC(CO)Cc5ccccc5)nc43)C(O)C2O)n1 [Example 69, (2R,3S,4R,5R)-2-(2-Ethyl-2H-tetrazol-5-yl)-5-[2-(1S-hydroxymethyl-2-phenyl-ethylamino)-6-(2-piperidin-1-yl-ethylamino)-purin-9-yl]-tetrahydro-furan-3,4-diol Formate]

Row | Molecule | A2a EC50 as a ratio of that of NECA (adenosine 2a receptor) | A1 EC50 as a ratio of that of NECA (adenosine 1 receptor) | A3 EC50 as a ratio of that of NECA (adenosine 3 receptor)
15 | CCn1nnc([C@H]2O[C@@H](n3cnc4c(N)nc(NCCc5ccc(O)cc5)nc43)[C@H](O)[C@@H]2O)n1.O=CO [Example 16, (2R,3R,4S,5R)-2-{6-Amino-2-[2-(4-hydroxy-phenyl)-ethylamino]-purin-9-yl}-5-(2-ethyl-2H-tetrazol-5-yl)-tetrahydro-furan-3,4-diol Formate] | 0.3 | 516.4 | >209
16 | CCn1nnc([C@H]2O[C@@H](n3cnc4c(N)nc(NCCc5ccc(OC)cc5)nc43)[C@H](O)[C@@H]2O)n1.O=CO [Example 18, (2R,3R,4S,5R)-2-{6-Amino-2-[2-(4-methoxy-phenyl)-ethylamino]-purin-9-yl}-5-(2-ethyl-2H-tetrazol-5-yl)-tetrahydro-furan-3,4-diol Formate] | 0.36 | 136.7 | >223
17 | CCn1nnc([C@H]2O[C@@H](n3cnc4c(N)nc(NCCc5ccc(O)c(O)c5)nc43)[C@H](O)[C@@H]2O)n1.O=CO [Example 15, (2R,3R,4S,5R)-2-{6-Amino-2-[2-(3,4-dihydroxy-phenyl)-ethylamino]-purin-9-yl}-5-(2-ethyl-2H-tetrazol-5-yl)-tetrahydro-furan-3,4-diol Formate] | 0.55 | 139.5 | >209
18 | Cn1cnc(CCNc2nc(NCCC3CCCCC3)c3ncn([C@@H]4O[C@H](c5nnn(C)n5)[C@@H](O)[C@H]4O)c3n2)c1.O=CO [Example 31, (2R,3R,4S,5R)-2-{6-(2-Cyclohexyl-ethylamino)-2-[2-(1-methyl-1H-imidazol-4-yl)-ethylamino]-purin-9-yl}-5-(2-methyl-2H-tetrazol-5-yl)-tetrahydro-furan-3,4-diol Formate] | 0.49 | >=3680 | >100
